Measured values as given in ChEMBL document CHEMBL1177797, “Discovery of 3,9-diazabicyclo[4.2.1]nonanes as potent dual orexin receptor antagonists with sleep-promoting activity in the rat” (Bioorg Med Chem Lett, 2010).
Calls of active or inactive are those of the source. The rule behind the calls is not given here.

Legend:
[1] = biological target: T1, Orexin/Hypocretin receptor type 1 (Homo sapiens, UniProt O43613); test: Antagonist activity at OX1R by FLIPR assay; type: functional
T1 sequence (O43613 whole entry): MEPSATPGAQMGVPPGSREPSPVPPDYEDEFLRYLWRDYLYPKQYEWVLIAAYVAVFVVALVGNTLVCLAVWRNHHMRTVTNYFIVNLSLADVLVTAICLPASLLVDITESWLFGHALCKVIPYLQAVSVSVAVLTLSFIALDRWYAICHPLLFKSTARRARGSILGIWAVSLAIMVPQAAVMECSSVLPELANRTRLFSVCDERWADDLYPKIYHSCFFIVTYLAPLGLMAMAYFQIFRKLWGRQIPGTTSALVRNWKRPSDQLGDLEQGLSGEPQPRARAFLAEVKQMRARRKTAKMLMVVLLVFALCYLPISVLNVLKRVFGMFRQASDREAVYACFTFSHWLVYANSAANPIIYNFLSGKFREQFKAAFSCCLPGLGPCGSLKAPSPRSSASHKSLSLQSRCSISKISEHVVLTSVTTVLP

Orexin receptor type 2 [2] = biological target: T2, Orexin receptor type 2 (Homo sapiens, UniProt O43614); test: Antagonist activity at OX2R by FLIPR assay; type: functional
T2 sequence (O43614 whole entry): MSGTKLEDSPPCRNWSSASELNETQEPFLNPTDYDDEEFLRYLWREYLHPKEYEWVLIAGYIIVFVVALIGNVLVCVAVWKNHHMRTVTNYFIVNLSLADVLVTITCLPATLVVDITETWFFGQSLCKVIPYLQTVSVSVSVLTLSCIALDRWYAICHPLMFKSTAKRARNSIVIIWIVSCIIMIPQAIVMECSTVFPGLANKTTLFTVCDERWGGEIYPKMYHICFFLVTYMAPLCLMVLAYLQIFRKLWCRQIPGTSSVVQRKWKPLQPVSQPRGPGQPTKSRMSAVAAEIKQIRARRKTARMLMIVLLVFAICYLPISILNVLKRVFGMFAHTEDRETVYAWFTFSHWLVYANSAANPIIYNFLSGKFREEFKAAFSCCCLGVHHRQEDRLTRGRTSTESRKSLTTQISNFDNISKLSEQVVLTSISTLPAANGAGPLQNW

[3] = biological target: T1, Orexin/Hypocretin receptor type 1; test: Binding affinity to OX1R
Orexin receptor type 2 [4] = biological target: T2, Orexin receptor type 2; test: Binding affinity to OX2R
[5] = Oral bioavailability in dog at 3 mg/kg; type: ADME, organism-based, Canis lupus familiaris; conditions: in vivo
[6] = Clearance in dog at 3 mg/kg, po and 0.125 mg/kg, iv; type: ADME, organism-based, Canis lupus familiaris; conditions: in vivo
[7] = Half life in dog at 3 mg/kg, po and 0.125 mg/kg, iv; type: ADME, organism-based, Canis lupus familiaris; conditions: in vivo
Canis familiaris = test: AUC (0 to 24 hrs) in dog at 3 mg/kg, po and 0.125 mg/kg, iv; type: ADME, organism-based, Canis lupus familiaris, Plasma; conditions: in vivo
[8] = Cmax in dog at 3 mg/kg, po and 0.125 mg/kg, iv; type: ADME, organism-based, Canis lupus familiaris; conditions: in vivo
[9] = Oral bioavailability in Sprague-Dawley rat at 10 mg/kg; type: ADME, organism-based; conditions: in vivo
[10] = Clearance in Sprague-Dawley rat at 10 mg/kg, po and 2 mg/kg, iv; type: ADME, organism-based; conditions: in vivo
[11] = Half life in Sprague-Dawley rat at 10 mg/kg, po and 2 mg/kg, iv; type: ADME, organism-based; conditions: in vivo
Rattus norvegicus [12] = test: AUC (0 to 24 hrs) in Sprague-Dawley rat at 10 mg/kg, po and 2 mg/kg, iv; type: ADME, organism-based, Plasma; conditions: in vivo
[13] = Cmax in Sprague-Dawley rat at 10 mg/kg, po and 2 mg/kg, iv; type: ADME, organism-based; conditions: in vivo
[14] = Drug level in Sprague-Dawley rat plasma at 10 mg/kg after 2 hrs; type: ADME, organism-based; set-up: dose 10 mg/kg; conditions: read-out: Drug uptake
[15] = Drug level in Sprague-Dawley rat plasma at 30 mg/kg after 2 hrs; type: ADME, organism-based; set-up: dose 30 mg/kg; conditions: read-out: Drug uptake
[16] = Drug level in Sprague-Dawley rat plasma at 60 mg/kg after 1 hr; type: ADME, organism-based; set-up: dose 60 mg/kg; conditions: read-out: Drug uptake
[17] = Drug level in Sprague-Dawley rat plasma at 100 mg/kg after 2 hrs administered in PEG400; type: ADME, organism-based; set-up: dose 100 mg/kg; conditions: read-out: Drug uptake
[18] = Drug level in Sprague-Dawley rat CSF at 10 mg/kg after 2 hrs; type: ADME, organism-based, Cerebrospinal fluid; set-up: dose 10 mg/kg; conditions: read-out: Drug uptake
[19] = Drug level in Sprague-Dawley rat CSF at 30 mg/kg after 2 hrs; type: ADME, organism-based, Cerebrospinal fluid; set-up: dose 30 mg/kg; conditions: read-out: Drug uptake
[20] = Drug level in Sprague-Dawley rat CSF at 60 mg/kg after 1 hr; type: ADME, organism-based, Cerebrospinal fluid; set-up: dose 60 mg/kg; conditions: read-out: Drug uptake
[21] = Ratio of drug level in CSF to plasma in Sprague-Dawley rat at 10 mg/kg after 2 hrs; type: ADME, organism-based; set-up: dose 10 mg/kg
[22] = Ratio of drug level in CSF to plasma in Sprague-Dawley rat at 30 mg/kg after 2 hrs; type: ADME, organism-based; set-up: dose 30 mg/kg
[23] = Ratio of drug level in CSF to plasma in Sprague-Dawley rat at 60 mg/kg after 1 hr; type: ADME, organism-based; set-up: dose 60 mg/kg
Rattus norvegicus [24] = test: Effect on sleep-awake pattern in rat assessed as increase in REM sleep at 60 mg/kg/day, po; type: functional, organism-based
Rattus norvegicus [25] = test: Effect on sleep-awake pattern in rat assessed as decrease in wakefulness at 60 mg/kg/day, po; type: functional, organism-based
Rattus norvegicus [26] = test: Effect on sleep-awake pattern in rat assessed as increase in […] at 60 mg/kg/day, po; type: functional, organism-based

Compound	IC50 [1] [nM]	IC50 (Orexin receptor type 2 [2]) [nM]	Ki [3] [nM]	Ki (Orexin receptor type 2 [4]) [nM]	further results
Cc1ccc(-n2nccn2)c(C(=O)N2C[C@H]3CC[C@@H]2CN(c2ncc4ccc(F)cc4n2)C3)c1 (single isomer, unassigned)	104	370	10	2.9	
Cc1ccc(-n2nccn2)c(C(=O)N2C[C@@H]3CC[C@H]2CN(c2ncc4ccc(F)cc4n2)C3)c1 (single isomer, unassigned)	46	790	2	62	
Cc1ccc(-n2nccn2)c(C(=O)N2C3CCC2CN(c2ncc4ccc(F)cc4n2)CC3)c1 (single isomer, unassigned; 8b)	99	150	3.7	6.7	
O=C(c1cc(Cl)ccc1-n1nccn1)N1C[C@@H]2C[C@H](C1)N(c1ncc3cc(F)ccc3n1)C2			0.4	0.6	
Cc1ccc(-n2nccn2)c(C(=O)N2CC[C@H]3CC[C@@H]2CN3c2ncc3ccc(F)cc3n2)c1	1600	> 10000	345	590	
Cc1ccc(-n2nccn2)c(C(=O)N2C3CCC2CN(c2ncc4ccc(F)cc4n2)CC3)c1 (single isomer, unassigned; 8a) [listing 1 of 2 here]	98	136	0.6	0.4	bioavailability [5]: 100%; clearance [6]: 3.6 mL/min/kg; half-life [7]: 1.8 h; AUC (Canis familiaris): 14.1 µM·h; Cmax [8]: 3400 nM; bioavailability [9]: 14%; clearance [10]: 23 mL/min/kg; half-life [11]: 1 h; AUC (Rattus norvegicus [12]): 1.57 µM·h; Cmax [13]: 570 nM; concentration at 2 h [14]: 1100 nM; concentration at 2 h [15]: 3100 nM; concentration at 1 h [16]: 14600 nM; concentration at 2 h [17]: 12500 nM; concentration at 2 h [18]: 3 nM; concentration at 2 h [19]: 23 nM; concentration at 1 h [20]: 170 nM; Kp at 2 h [21]: 0.004; Kp at 2 h [22]: 0.007; Kp at 1 h [23]: 0.011
Cc1ccc(-n2nccn2)c(C(=O)N2C3CCC2CN(c2ncc4ccc(F)cc4n2)CC3)c1 (single isomer, unassigned; 8a) [listing 2 of 2 here]					Activity (Rattus norvegicus [24]): Active; Activity (Rattus norvegicus [25]): Active; Activity (Rattus norvegicus [26]): Active
Cc1ccc(-n2nccn2)c(C(=O)N2CCCN(c3ncc4ccccc4n3)CC2)c1					clearance [6]: 12 mL/min/kg; AUC (Canis familiaris): 0.44 µM·h; AUC (Rattus norvegicus [12]): 0.19 µM·h
Cc1ccc(-n2nccn2)c(C(=O)N2CC[C@@H]3CC[C@H]2CN3c2ncc3ccc(F)cc3n2)c1	2300	1450	160	105	
Cc1ccc(-n2nccn2)c(C(=O)N2C[C@H]3CC[C@@H]2CCN3c2ncc3ccc(F)cc3n2)c1	125	140	0.6	2.2	
Cc1ccc(-n2nccn2)c(C(=O)N2CCC3CCC(C2)N3c2ncc3ccc(F)cc3n2)c1 (racemic)	72	175	0.9	0.8	
Cc1ccc(-n2nccn2)c(C(=O)N2C[C@@H]3CC[C@H]2CCN3c2ncc3ccc(F)cc3n2)c1	800	740	7.6	14	
